Results on 1 compound are retold here after patent US20130072440A1, “CO-CRYSTALS AND PHARMACEUTICAL FORMULATIONS COMPRISING THE SAME” (VERTEX PHARMACEUTICALS INCORPORATED, priority 2010, published 2013).

The data set can be described thus: Kinetic solubility in Fed State Simulated Intestinal Fluid (FESSIF). Conditions: thermodynamic from solid. The data set is classed as physicochemical. The procedure:
Kinetic solubility profiles of VX-950 co-crystal fluid bed granules were determined in Fed State Simulated Intestinal Fluid (FESSIF).
[…] of VX-950 co-crystal fluid-bed granules were dissolved in 100 ml of FESSIF.
The experiment of Example was repeated with 166.51 mg of VX-950 co-crystal fluid-bed granules.
Kinetic solubility of the following substances or formulations were measured in FESSIF: […]

≈ marks a conversion by molar mass, not a printed value.

For orientation: kinetic solubility means solubility judged after dilution from a stock solution rather than from solid. The compound `CCC[C@H](NC(=O)[C@@H]1[C@H]2CCC[C@H]2CN1C(=O)[C@@H](NC(=O)[C@@H](NC(=O)c1cnccn1)C1CCCCC1)C(C)(C)C)C(=O)C(=O)NC1CC1` [Crystalline VX-950] registered a solubility (kinetic) at 15 min of 5 µg/mL (≈ 7.35 µM), a kinetic solubility at 30 min of 5 µg/mL (≈ 7.35 µM), a kinetic solubility at 45 min of 5 µg/mL (≈ 7.35 µM) and a solubility (kinetic) at 60 min of 4.5 µg/mL (≈ 6.62 µM). Also, the solubility (kinetic) at 90 min was 4 µg/mL (≈ 5.88 µM) and the solubility (kinetic) at 180 min is 4 µg/mL (≈ 5.88 µM).
